Literature values as cited in patent US20250295648A1 (priority 2024, published 2025).

Test system: Parkinson's patients with troublesome L-DOPA-induced dyskinesia
Settings: cited from earlier work

Structure (SMILES): Fc1ccc(-c2cncc(CNC[C@H]3CCc4ccccc4O3)c2)cc1 [sarizotan]
- effect on L-DOPA efficacy (phase 2b study, Goetz 2007): two of the three tested doses significantly reduced L-DOPA efficacy
- reduction of LID (third (lowest) dose, two phase 3 trials): ineffective in reducing LID
